Results reported in PMC2228077, “The bioavailability of oral GI147211 (GG211), a new topoisomerase I inhibitor” (British Journal of Cancer, 1997).
Values joined by “and” are separate entries in the source; they are usually repeats but may differ in a detail not shown here. Equal entries are not always repeated. Structures can show the parent of a compound that is named as a salt.

Legend:
[1] = design: method as in Gerrits et al, 1996; details: i.v. daily x5 every 3 weeks; ref Gerrits et al, 1996; cited from earlier work
[2] = Plasma pharmacokinetics and absolute bioavailability, oral day 1 vs 30-min i.v. infusion day 2, patients with solid tumours; design: mean maximal plasma concentration (Cmax) after intravenous dosing: dose or concentration left out as unconfirmed
From the text: British Journal of Cancer (1997) 76(7), 946-951 ? 1997 Cancer Research Campaign The bloavailability of oral Gil 47211 (GG21 1), a new topoisomerase I inhibitor CJH Gerrits', JHM Schellens', GJ Creemers', P Wissel2, ASTh Planting', JF Pritchard2, S DePee2, M de Boer-Dennert', M Harteveld' and J Verweij' 'Department of Medical Oncology, Rotterdam Cancer Institute (Daniel den Hoed Kliniek) and University Hospital, The Netherlands; 2Glaxo Wellcome, Department of Pharmacokinetics, NC, USA Summary Topoisomerase I inhibitors are new compounds of interest for cancer chemotherapy. We performed a study with Gl147211, a new semisynthetic camptothecin analogue, to determine the absolute bioavailability of the drug given orally. […] Gi147211 was given orally on day 1 and as a 30-min infusion daily on days 2-5. The treatment course was repeated every 3 weeks. In subsequent patient cohorts, the dose of the oral formulation was escalated from 1.5 mg m-2 to 6.0 mg m-2; the dose for i.v. administration was fixed at 1.2 mg m-2. Plasma pharmacokinetics was performed on day 1 and 2 of the first course and on day 1 of the second course using a validated high-performance liquid chromatographic assay. […] Keywords: G1147211 (GG211); bioavailability; topoisomerase I inhibitor; phase I study G1147211 [7-(methylpiperazinomethylene)-10,11-ethylenedioxy- 20(S)-camptothecin dihydrochloride] is a water-soluble semisyn- thetic analogue of camptothecin (CPT). […] Its further development was stopped because of unpredictable and severe myelosuppression, gastro- intestinal toxicity and haemorrhagic cystitis (Gottlieb et al, 1970; Creaven et al, 1972; Muggia et al, 1972). Interest in CPT was renewed in the 1980s, because topoiso- merase I was identified as the single cellular target of CPT (Hsiang et al, 1988 1989), and an overexpression of topoisomerase I was found in various tumour cell lines but not in normal tissues (Giovanella et al, 1989; Hirabayashi et al, 1992). Topoisomerase I is a nuclear enzyme that resolves topological problems of the torsionally strained (supercoiled) DNA by forming a covalent adduct between topoisomerase I and the DNA, termed the cleav- able complex. This catalytic intermediate creates single-strand DNA breaks, allowing the DNA molecule to rotate around the intact DNA strand at the cleavage site, leading to a relaxation of Received 29 November 1996 Revised 27 March 1997 Accepted 1 April 1997 Correspondence to: CJH Gerrits, Department of Medical Oncology, Rotterdam Cancer Institute, (Daniel den Hoed Kliniek) and University Hospital, Groene Hilledijk 301, 3075 EA Rotterdam, The Netherlands the DNA molecule, and in this way replication, transcription and other DNA functions can proceed. These enzyme-bridged breaks are then resealed by topoisomerase I (Champoux, 1976; Muller, 1985; Muller et al, 1985; Camilloni et al, 1989). […] It has been documented that camptothecin (CPT) interferes with the breakage-reunion process of topoiso- merase I by stabilizing the enzyme-DNA cleavable complexes (Liu et al, 1989).

[3] = individual patients 1-19, i.v. 1.2 mg m-2, Table 3
[4] = individual patients, oral 6 mg m-2, Fed (after breakfast), Tables 3 and 4
[5] = individual patients, oral 6 mg m-2, fasted, Table 3
[6] = oral 6.0 mg m-2, lactone, Table 4

For `CC[C@@]1(O)C(=O)OCc2c1cc1n(c2=O)Cc2c-1nc1cc3c(cc1c2CN1CCN(C)CC1)OCCO3` [GI147211, 7-(methylpiperazinomethylene)-10,11-ethylenedioxy-20(S)-camptothecin dihydrochloride], the main toxicity [1] is listed as “myelosuppression”, the “Oral AUC total, mean” value ([2]; all oral doses 1.5-6 mg m-2, total = lactone plus acid, Table 3) is listed as 36.33 ng·h/mL and the “intrapatient variability of the absolute bioavailability, median” value ([2]; course 1 vs course 2) is listed as 31%. For the same compound, the “intrapatient variability of the absolute bioavailability, range” value ([2]; course 1 vs course 2) was 3-88%, the “absolute bioavailability, range between patients” value ([2]; human, in vivo) was 4.8-24.3% and the “mean maximal plasma concentration (Cmax) after intravenous dosing” value ([2]; human, in vivo) was 21.76 ng/mL. The “i.v. AUC, mean” value ([2]; human, in vivo, iv, 1.2 mg) was 31.84 ng·h/mL, the “cases with Tmax < 0.5 h” value ([2]; human, in vivo, po) was 13 of 19 and the “dose dependence of oral bioavailability” value ([2]; human, in vivo, po) was “not dose dependent”. The “median Tmax” value ([2]; human, in vivo, po) was 0.5 h, the “terminal half-life after oral administration (lactone), range” value ([2]; human, in vivo, po) was 2.0 to 13.0 h and the “Oral Tmax” value ([2]; human, in vivo, po, 1.5 mg) was 0.25 h. For the same compound, the “Absolute bioavailability fasted, mean” value ([2]; human, in vivo, po, 6 mg) was 11.4%, the “Absolute bioavailability fed, mean” value ([2]; human, in vivo, po, 6 mg) was 11.2% and the “Oral Tmax fasted, mean” value ([2]; human, in vivo, po, 6 mg) was 0.65 h. For the same compound, the “Oral Tmax fed, mean” value ([2]; human, in vivo, po, 6 mg) was 0.69 h, the “influence of fasting or fed state on bioavailability” value ([2]; human, in vivo, po, 6 mg) was “no significant influence” and the “influence of fed or fasted state on Tmax” value ([2]; human, in vivo, po, 6 mg) was “not significantly influenced”. For the same compound, the “mean maximal plasma concentration (Cmax) after oral dosing” value ([2]; human, in vivo, po, 6 mg) was 4.02 ? 3.57 ng ml-1, the “i.v. t1/2, mean” value ([2]; i.v. 1.2 mg m-2, 13 patients of 6.0 mg m-2 level, Table 4) was 8.53 h and the “Oral AUC total” value ([2]; individual patient 18, oral 6 mg m-2, Fed, lactone plus acid, Table 3) was 14.69 ng·h/mL. For the same compound, the “i.v. AUC” value [2, 3] was 19.11 ng·h/mL, the “i.v. t1/2” value [2, 3] was 6.2 h (2×) and 6.0 h and 14.3 h and 5.6 h and 6.7 h and 7.0 h and 5.2 h and 9.5 h and 10.9 h and 10.5 h and 8.9 h and 6.8 h and 4.5 h and 18.6 h and 14.6 h and 7.2 h and 1.9 h and 4.9 h and the “Oral t1/2” value ([2]; individual patients, oral 1.5 mg m-2, Table 3) was 2.5 h and 4.0 h. For the same compound, the “Oral AUC total” value ([2]; individual patients, oral 1.5 mg m-2, lactone plus acid, Table 3) was 3.12 ng·h/mL and 11.16 ng·h/mL, the “Oral t1/2” value ([2]; individual patients, oral 3 mg m-2, Table 3) was 12.2 h and 7.7 h and 9.5 h and 5.1 h and the “Oral AUC total” value ([2]; individual patients, oral 3 mg m-2, lactone plus acid, Table 3) was 70.82 ng·h/mL and 12.81 ng·h/mL and 15.21 ng·h/mL and 24.05 ng·h/mL. For the same compound, the “Oral t1/2” value ([2]; individual patients, oral 3 mg m-2, second course (C2), Table 3) was 2.0 h and 11.7 h, the “Absolute bioavailability Lactone” value [2, 4] was 10.5% and 11.9% and the “Oral t1/2” value [2, 4] was 8.7 h and 6.0 h (2×) and 8.2 h and 11.1 h and 11.9 h and 4.1 h and 3.4 h and 3.5 h. The “Absolute bioavailability Lactone” value [2, 5] was 11.1%, the “Absolute bioavailability Total” value [2, 5] was 11.1% and the “Oral t1/2” value [2, 5] was 4.2 h and 4.5 h and 4.3 h (2×) and 6.1 h and 10.4 h and 9.7 h and 7.8 h and 6.2 h and 13.0 h and 6.7 h and 5.0 h and 3.7 h. The “Oral AUC total” value ([2]; individual patients, oral 6 mg m-2, fasted, lactone plus acid, Table 3) was 157.68 ng·h/mL and 30.60 ng·h/mL and 36.73 ng·h/mL and 39.35 ng·h/mL and 55.59 ng·h/mL and 27.76 ng·h/mL and 13.89 ng·h/mL and 28.78 ng·h/mL and 30.71 ng·h/mL and 40.52 ng·h/mL and 40.50 ng·h/mL, the “Oral t1/2” value ([2]; individual patients, oral 6 mg m-2, second course (C2), Table 3) was 7.8 h and 7.2 h and the “courses in which plasma concentrations could be measured at 24 h” value ([2]; oral) was 21 % of courses. The “courses in which plasma concentration-time curves could be measured up to 12 h” value ([2]; oral 6.0 mg m-2, lactone and total) was 68 % of courses, the “Oral t1/2 fasted, mean” value [2, 6] was 6.61 h and the “Oral t1/2 fed, mean” value [2, 6] was 6.84 h.
